Assay results taken from US8101615B2, “1,4-diaryl-dihydropyrimidin-2-ones and their use as human neutrophil elastase inhibitors” (Bayer Pharma Aktiengesellschaft, priority 2004, dated 2012).

Target: T1, human neutrophil elastase (HNE) (Homo sapiens, UniProt P08246)
T1 construct: purchased SERVA Electrophoresis GmbH, Heidelberg, Germany #20927.01
T1 sequence (P08246 30-267): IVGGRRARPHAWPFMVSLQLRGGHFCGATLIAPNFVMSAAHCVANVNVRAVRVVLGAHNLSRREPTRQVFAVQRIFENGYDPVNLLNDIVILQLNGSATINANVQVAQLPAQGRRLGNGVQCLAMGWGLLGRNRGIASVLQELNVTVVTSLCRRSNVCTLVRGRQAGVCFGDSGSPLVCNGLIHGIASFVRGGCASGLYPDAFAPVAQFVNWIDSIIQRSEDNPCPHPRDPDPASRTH
Assay: In vitro inhibition of HNE using a fluorogenic peptide substrate (Example I-A)
Format: biochemical
Conditions: fluorogenic peptide substrate MeOSuc-Ala-Ala-Pro-Val-AMC, 384 MTP assay format
Protocol: I. In vitro Enzyme Assays of Human Neutrophil Elastase (HNE)
The test solution is prepared by mixing 10 μl of test compound dilution, 20 μl of HNE enzyme dilution (final concentration 8-0.4 μU/ml, routinely 2.1 μU/ml) and 20 μl of substrate dilution (final concentration 1 mM-1 μM, routinely 20 μM), respectively. The solution is incubated for 0-2 hrs at 37° C. (routinely one hour). The fluorescence of the liberated AMC due to the enzymatic reaction is measured at 37° C. (TECAN spectra fluor plus plate reader). […] IC50 values are determined by RFU-versus-[I] plots. Km and Km(app.) values are determined by Lineweaver-Burk plots and converted to Ki values by Dixon plots.

Compound	IC50
CC1=C(C(=O)NC2CC2)C(c2ccc(C#N)cc2)NC(=O)N1c1cccc(C(F)(F)F)c1 (centres unmarked) [Example 6, 4-(4-Cyanophenyl)-N-cyclopropyl-6-methyl-2-oxo-1-[3-(trifluoromethyl)phenyl]-1,2,3,4-tetrahydropyrimidine-5-carboxamide]	200 nM
CC1=C(C(=O)NCc2ccccc2F)C(c2ccc(C#N)cc2)NC(=O)N1c1cccc(C(F)(F)F)c1 (centres unmarked) [Example 14]	1000 nM
CC1=C(C(=O)NS(=O)(=O)c2ccc(C#N)cc2)C(c2ccc(C#N)cc2)NC(=O)N1c1cccc(C(F)(F)F)c1 (centres unmarked) [Example 73]	1000 nM

Further lines, results first:

IC50	Compound
130 nM	CC1=C(C(=O)C2CCCCC2)C(c2ccc(C#N)cc2)NC(=O)N1c1cccc(C(F)(F)F)c1 (centres unmarked) [Example 21, 4-{5-(Cyclohexylcarbonyl)-6-methyl-2-oxo-1-[3-(trifluoromethyl)phenyl]-1,2,3,4-tetrahydropyrimidin-4-yl}benzonitrile]
50 nM	CC1=C(C(=O)NS(=O)(=O)CC(F)(F)F)C(c2ccc(C#N)cc2)N(CC(=O)OC(C)(C)C)C(=O)N1c1cccc(C(F)(F)F)c1 (centres unmarked) [Example 69]
50 nM	CC1=C(CCC(=O)O)C(c2ccc(C#N)cc2)NC(=O)N1c1cccc(C(F)(F)F)c1 (centres unmarked) [Example 78, 3-{4-(4-Cyanophenyl)-6-methyl-2-oxo-1-[3-(trifluoromethyl)phenyl]-1,2,3,4-tetrahydropyrimidin-5-yl}propanoic acid]
23 nM	COC(=O)c1coc(CN2C(=O)N(c3cccc(C(F)(F)F)c3)C(C)=C(C(=O)C3CC3)C2c2ccc(C#N)cc2)n1 (centres unmarked) [Example 43, Methyl 2-{[6-(4-cyanophenyl)-5-(cyclopropylcarbonyl)-4-methyl-2-oxo-3-[3-(trifluoromethyl)phenyl]-3,6-dihydropyrimidin-1(2H)-yl]methyl}-1,3-oxazole-4-carboxylate]
20 nM	CC1=C(CO)C(c2ccc(C#N)cc2)NC(=O)N1c1cccc(C(F)(F)F)c1 (centres unmarked) [Example 1, 4-{5-(Hydroxymethyl)-6-methyl-2-oxo-1-[3-(trifluoromethyl)phenyl]-1,2,3,4-tetrahydropyrimidin-4-yl}benzonitrile]
20 nM	CC1=C(C(=O)C2CC2)C(c2ccc(C#N)cc2)N(CC(=O)NS(=O)(=O)CC(F)(F)F)C(=O)N1c1cccc(C(F)(F)F)c1 (centres unmarked) [Example 45, 2-[6-(4-Cyanophenyl)-5-(cyclopropylcarbonyl)-4-methyl-2-oxo-3-[3-(trifluoromethyl)phenyl]-3,6-dihydropyrimidin-1(2H)-yl]-N-[(2,2,2-trifluoroethyl)sulfonyl]acetamide]

Tested on: human polymorphonuclear cells (PMNs)
Assay: In vitro PMN elastolysis assay (Example II-A)
Format: cell-based
Conditions: at 1.2 μM; mean±s.e.m.; n=3 different donors at 3.6×10^5 cells per well
Protocol: This assay is used to determine the elastolytic potential of human polymorphonuclear cells (PMNs) and assess the proportion of degradation due to neutrophil elastase [cf. Z. W. She et al., Am. J. Respir. Cell. Mol. Biol. 9, 386-392 (1993)].
Tritiated elastin, in suspension, is coated on to a 96 well plate at 10 μg per well. Test and reference [ZD-0892 (J. Med. Chem. 40, 1876-1885, 3173-3181 (1997), WO 95/21855) and α1 protease inhibitor (α1PI)] compounds are added to the wells at the appropriate concentrations. Human PMNs are separated from peripheral venous blood of healthy donors and resuspended in culture media. The neutrophils are added to the coated wells at concentrations ranging between 1×10^6 to 1×10^5 cells per well. Porcine pancreatic elastase (1.3 μM) is used as a positive control for the assay, and α1PI (1.2 μM) is used as the positive inhibitor of neutrophil elastase. The cellular control is PMNs without compound at each appropriate cell density. The cells plus compounds are incubated in a humidified incubator at 37° C. for 4 hours. The plates are centrifuged to allow the harvest of cell supernatant only. […] The plates are dried until no liquid is visible in the wells and read in a beta counter for 3 minutes per well. […]
The compounds of this invention are evaluated for their inhibitory activity in this HNE-dependent model of neutrophil elastolysis.

Compound	inhibition of 3H-elastin elastolysis
α1PI: α1 protease inhibitor, used as the positive inhibitor of neutrophil elastase	83.46±3.97%

Same assay, conditions: mean±s.e.m.; n=2 different donors at 3.6×10^5 cells per well

IC50	Compound
45.5 ± 7.75 nM	COc1ccc(C(=O)N[C@H](C(=O)N2CCC[C@H]2C(=O)N[C@H](C(=O)C(F)(F)F)C(C)C)C(C)C)cc1 [ZD-0892]
